In general, IC50 refers to the midpoint of a concentration-inhibition curve.

Here are results for three compounds from US20250041313A1, “COMBINATION THERAPY FOR TREATMENT OF CANCER” (CITY OF HOPE, priority 2023, published 2025).

Read-outs that look alike come from different tables or passages of the source.

One test relates to H446 spheroids. Nature of the test: Spheroid ATP assay (Cell titer glo). Format: cell-based, human. The note with it: 72 h, Teri 1600 nM, Lur 1600 pM, Teri/Lur 1600 nM/pM. Here is the method:
Cell titer glo/ATP assay (Promega, Madison, WI) was used for ATP measurement in spheroids. After 72 h of drug treatments, intracellular spheroid's ATP concentration was measured by luminescence following the manufacturer protocol using Tecan Spark 10 plate reader.
For orientation: ATP-based viability assays read luminescence as a measure of living cells.

Another test deals with SBC3 xenograft. Nature of the test: SBC3 mouse xenograft, Lur/Leflu study. Format: in vivo. To be noted: for tumor weight at end of study: Lur 0.5 mg/kg, Leflu 3.8 mg/kg, i.p. twice a week; for reduction in tumor size/weight: vs control. Here is the method:
Athymic nude nu/nu mice were obtained from Charles River, Wilmington, MA, and were acclimated for a week before beginning the experiment. All animal experiments were carried out in accordance with a protocol approved by the Institutional Animal Care and Use Committee COH (IACUC #16004). For treatments, mice were divided into 4 groups with five mice per group and subcutaneously injected into one flank with 2×10^6 SBC3 or SBC5 cells suspensions in 100 μl of PBS. Treatment started on the 14th day when tumors became palpable. Two in vivo studies were done in this project. SBC3 and SBC 5 xenograft with i) vehicle control, ii) […] 50 mg/kg, iii) Leflu 7.5 mg/kg, and iv) […]/Leflu. SBC3 with i) vehicle control, ii) Lur 0.5 mg/kg, iii) Leflu 3.8 mg/kg, and iv) Lur/Leflu. Treatments were given to mice via i.p. twice a week for 6 weeks. Animals were examined daily for signs of tumor growth. Tumors were measured in two dimensions using calipers and body weights were recorded. Animals were photographed on days 1, 5, 10, 15, 20, 25, 30, 35, and 40 after treatment. Tumors were removed on day 40 and photographed. At the end of the study, the mice were euthanized by CO2 asphyxiation followed by cervical dislocation. The tumor weights were compared between groups using an unpaired Student's t-test. A portion of the tumor was fixed in 10% buffered formaldehyde solution and paraffin-embedded for immuno-staining. FFPE tumor sections were stained with pDRP Ser^616 antibody. Tumor sections were deparaffinized and rehydrated, followed by heat-mediated antigen retrieval (pH 6, Dako). After permeabilization and blocking, tumor sections were stained with pDRP1 Ser^616 antibody overnight, washed and incubated with Alexa 488 secondary antibody for one hour, mounted and observed on an LSM 880 with a 10×/0.45 NA objective (Carl Zeiss). Immunofluorescent confocal images were acquired for each treatment (magnification:100×). Mean immunofluorescence intensities were calculated with ZEN 2.3 Lite software.

The subject of test [1] is SBC3 cells. Nature of the test: IncuCyte S3 live-cell proliferation. Format: cell-based, human. Here is the method:
FIGS. 2A-2I. Teriflunomide (Teri) affects the phosphorylation of DRP1 at Ser^616 and mitochondrial/nuclear morphology. FIG. 2A: Effect of Teri and Leflu on SBC3, and SBC5 cells proliferation was recorded by the Sartorius IncuCyte S3 live-cell analysis system (n=2, four technical replicates). […] FIG. 2B: Effect of Teri on DRP1 phosphorylation in SBC3 cells. Cell lysates were subjected to immunoblotting (n=3, biological replicates). FIG. 2C: The expression ratio of level of pDRP1 Ser^616 and Ser^637 to actin was calculated via densitometric analysis of each blot using ImageJ software. The detected ratio of pDRP1 Ser^616 to pDRP1 Ser^637 was calculated and compared in SBC3 cells. […] FIGS. 2D-2E: Calculating pDRP1 Ser^616 fluorescence signal by QuPath software. Bar graphs mean±SE, *p<0.05; **p<0.01; ***p<0.001; ****p<0.0001. Results were analyzed by ANOVA with Tukey post-test. FIG. 2F: The surface areas of SBC3 mitochondria and nuclei were quantified with Imaris Cells modules. The minimal number of SBC3 cells analyzed for each group was 103 (M1 10 μM), and the maximal was 383 (Control). FIG. 2G: SBC5 mitochondria and nuclei surface areas were quantified with Imaris Cells modules. The minimal number of SBC5 cells analyzed for each group was 357 (MDIVI1 10 μM) and the maximal was 570 (Control). Results were analyzed by ANOVA with Tukey post-test, *p<0.05; **p<0.01; ****p<0.0001. Mitochondria in control cells were closely packed around the nuclei and treatment with Teri rearranged the mitochondrial network and extended the area from the nuclei. […] SBC3 cells were treated with drugs for 18 hours, fixed with paraformaldehyde and subjected to IF staining with Tom 20 antibody, nuclei were stained with Hoechst 33342. Scale bar 10 μm. Right inserts represent shape of mitochondria for control and treatments. FIG. 2I: High resolution confocal IF images of mitochondria in SBC5 cells. Scale bar 10 μm. Right inserts represent shape of mitochondria for control and treatments.

Test [2] concerns SBC3 cells. Put plainly: Imaris quantification of mitochondrial and nuclear areas/morphology. Format: cell-based, human. Here is the method: Imaris 9.9.0 (Bitplane, AG), with Surfaces and Cells modules, was used to generate mitochondria morphology data from 2D images and 2D Z-stack subsets. Surfaces were used to evaluate individual mitochondria from cell monolayers and spheroids. Detection parameters were optimized for visible mitochondria and nuclei in each group with varying signal intensities. Roundness ratios were calculated from Surface generated Bounding Box 00 Length measurements. Object lengths less than 0.1 μm were excluded, and lengths greater than 1.26 μm were separately analyzed as clusters. Thresholds were uniformly applied to roundness ratios to categorize mitochondria morphology as elongated (<0.599), intermediate (≥0.600-0.649), or round/fragmentated (≥0.650). The percentage of cells from total number is based on a ratio. A perfectly round object has a ratio of 1.0. The Cells module was used to detect and quantify mitochondria and nucleus area from cell monolayers. Identical parameters were applied to all groups with cell boundary detection based on mitochondria signals. Imaris includes nuclei in cytoplasm measurements, so mitochondrial area is calculated by subtracting nucleus area from cell cytoplasm area. Abnormal nuclei were excluded (<100 μm^2, >750 μm^2).
MitoTracker Red and Hoechst 33342 were used to validate Teri and Leflu effects on intact mitochondrial morphology in SBC3 and SBC5 cells. M1 and MDIVI1 compounds were used as positive controls because they are promoters of mitochondrial fusion. Mitochondrial and nuclear areas were quantified by analyzing object surface area and intensity in Imaris 9.9.0.

In test [3] the test system is SBC3 cells. Nature of the test: CCK-8 cell viability/cytotoxicity assay, 72 h. To be noted: Homo sapiens, SBC-3. Format: cell-based, human. Here is the method: (§1) The expression levels of DRP1 and DHODH in SCLC lines were compared with non-malignant BEAS 2B cells. […] Previous studies have shown that Leflu and its active metabolite Teri regulate mitochondrial morphology (9,10,26). […] In vitro cytotoxicity effect of Teri and Leflu was tested in a panel of SCLC cell lines. Ten SCLC cell lines were treated with increasing concentrations of each drug for 72 h.
(§2) Isobologram and CI50 values were calculated using the Chou-Talalay method and IC50 to find synergism (FIG. 3B).

The test system of the next test is SBC5 cells. Put plainly: CCK-8 cell viability/cytotoxicity assay, 72 h. In kind it is cell-based, human. Here is the method:
as §1, §2

Setting [4] is: SBC3 cells, 72 h, read-out: IC50.

On to `COc1ccc2[nH]c3c(c2c1)CCN[C@]31CS[C@@H]2c3c(OC(C)=O)c(C)c4c(c3[C@H](COC1=O)N1[C@@H]2[C@H]2c3c(cc(C)c(OC)c3O)C[C@@H]([C@@H]1O)N2C)OCO4` [Lurbinectedin, lurbinectedin], for which the “ATP level compared with the control” value in the test on H446 spheroids is on record as approximately 60%. In the test with SBC3 xenograft, the “tumor weight at end of study” value came to 1.09 ± 0.11 g and the “reduction in tumor size/weight” value is recorded as approximately 39%.

As to `C/C(O)=C(\C#N)C(=O)Nc1ccc(C(F)(F)F)cc1` [Teriflunomide, teriflunomide], the cell proliferation entry with SBC3 cells [1] is reported as “inhibited cell proliferation in a dose-dependent manner”. Also, the “ATP level compared with the control” value in the test with H446 spheroids was “approximately 80%”. Also, in the test on SBC3 cells [2] (SBC3), the “Mitochondrial elongation (Airyscan imaging)” value was “visible”. The Mitochondrial area in the test with SBC3 cells [2] (SBC3, 10 μM) was determined as 569±19.9 μm^2; with SBC3 cells [2] (SBC3, 20 μM) it was 604.8±28.9 μm^2. The “Nuclear size (area)” value was 386.8±10.86 μm^2 in the test on SBC3 cells [2] (SBC3, 10 μM) and 423.5±16.57 μm^2 in the test with SBC3 cells [2] (SBC3, 20 μM). Moreover, the IC50 in the test on SBC3 cells [3] (SBC3, CCK-8 72 h, fixed concentrations of Teri and Carbo, read-out: IC50, single treatment and combination treatment) is 4.24 µM; in the test on SBC3 cells [3] (setting [4]), 2 µM; with SBC5 cells it was 33 µM; in the test on SBC5 cells (Homo sapiens, SBC-5, 72 h), 30 µM.

Consider `Cc1oncc1C(=O)Nc1ccc(C(F)(F)F)cc1` [Leflunomide, leflunomide], for which the cell proliferation result with SBC3 cells [1] is on record as “inhibited cell proliferation in a dose-dependent manner”. For the same compound, in the test on SBC3 xenograft, the “tumor weight at end of study” value is 1.39 ± 0.12 g and the “reduction in tumor size/weight” value is approximately 22%. In the test with SBC3 cells [2] (SBC3), the “Mitochondrial elongation (Airyscan imaging)” value is “visible” and the “effect on mitochondrial or nuclear areas” value is recorded as “did not affect”. The IC50 with SBC3 cells [3] (setting [4]) is 8.9 µM. For the same compound, the IC50 in the test on SBC5 cells (Homo sapiens, SBC-5, 72 h) came out at 108 µM.
